The values that follow come from US8173808B2, “Substituted naphthalenyl-pyrimidine compounds” (ArQule, Inc., priority 2009, dated 2012).

Molecules are shown by their SMILES.

One assay deals with DLD-1. Description: MTS assay, DLD-1. Type of assay: cell-based. To be noted: Homo sapiens, 72 hours, 1 Percent FBS. The method, then:
(§1) Cells were maintained at 37° C., 5% CO2 in DMEM media supplemented with 1% fetal bovine serum, penicillin/streptomycin and fungizone (Invitrogen). Cells were seeded into 96-well tissue culture plates at 3000 per well and cultured at 37° C. for 18 hours. Test compounds were dissolved and diluted to 300× in DMSO then diluted 1:40 in DMEM. Cells were incubated with test compounds for 72 hours followed by incubation with tetrazolium compound (3-(4,5-dimethylthiazol-2-yl)-5-(3-carboxymethoxyphenyl)-2-(4-sulfophenyl)-2H-tetrazolium, inner salt; MTS) and the electron coupling reagent, phenazine methosulfate (PMS) for 4 hours. […] The ability of compounds to inhibit cell growth in this assay is correlated with the reduction of dehydrogenase enzyme activity found in metabolically active cells. The measurement of the absorbance of the formazan was assessed using a Victor (Perkin Elmer) microplate reader at 492 nm. The calculated IC50 value is the concentration of the test compound that causes a 50% decrease in the absorbance.
(Tetrazolium assays rely on reduction of a dye to a coloured formazan, in cell work by metabolically active cells.)

The next assay concerns MDA-MB-231. Description: MTS assay, MDA-MB-231. Type of assay: cell-based. To be noted: Homo sapiens, 72 hours, 1 Percent FBS. On the procedure: as §1

The term inhibition denotes how much of the control response was suppressed. Higher therefore signals a strong effect. Consider `CNc1nccc(-c2cc(NC3CCN(c4ncnc5c(C)csc45)CC3)c3cc(OC)ccc3c2)n1` [Compound 164, 4-(6-methoxy-4-{[l-(7-methylthieno[3,2-d]pyrimidin-4-yl)piperidin-4-yl]amino}-2-naphthyl)-N-methylpyrimidin-2-amine], for which the inhibition at 10 µM in the assay with DLD-1 was 98%; in the assay on MDA-MB-231, 90%.
In the case of `CCN(CC)CCCN1CCN(CC(=O)Nc2cc(-c3ccnc(NC)n3)cc3ccc(OC)cc23)CC1` [Compound 36, 2-{4-[3-(diethylamino)propyl]piperazin-1-yl}-N-{7-methoxy-3-[2-(methylamino)pyrimidin-4-yl]-1-naphthyl}acetamide], the inhibition at 10 µM with DLD-1 was 87%; in the assay with MDA-MB-231, 92%.
Consider `COc1ccc2cc(-c3ccnc(NCc4ccc(OC)c(OC)c4)n3)cc(N3CCNCC3)c2c1` [Compound 121, N-(3,4-dimethoxybenzyl)-4-(6-methoxy-4-piperazin-1-yl-2-naphthyl)pyrimidin-2-amine], for which the inhibition at 10 µM in the assay on DLD-1 is 97%; in the assay on MDA-MB-231, 99%.
For the molecule `CNc1nccc(-c2cc(NC(=O)CN3CCN(CCc4cccs4)CC3)c3cc(OC)ccc3c2)n1` [Compound 46, N-{7-methoxy-3-[2-(methylamino)pyrimidin-4-yl]-1-naphthyl}-2-{4-[2-(2-thienyl)ethyl]piperazin-1-yl}acetamide], the inhibition at 10 µM in the assay with DLD-1 and in the assay with MDA-MB-231 was 99% throughout.
With `CNc1nccc(-c2cc(NC(=O)CN3CCN(CCCN(C)C)CC3)c3cc(OC)ccc3c2)n1` [Compound 65, 2-{4-[3-(dimethylamino)propyl]piperazin-1-yl}-N-{7-methoxy-3-[2-(methylamino)pyrimidin-4-yl]-1-naphthyl}acetamide], the inhibition at 10 µM in the assay with DLD-1 and in the assay on MDA-MB-231 was 98% in each case.
As for `CCN1CCCC(Nc2nccc(-c3cc(NC(=O)OC(C)(C)C)c4cc(OC)ccc4c3)n2)C1` (stereo not drawn) [Compound 91, tert-butyl (3-{2-[(1-ethylpiperidin-3-yl)amino]pyrimidin-4-yl}-7-methoxy-1-naphthyl)carbamate], the inhibition at 10 µM amounted to 97% with DLD-1 and 85% in the assay with MDA-MB-231.
As for `COCCNc1nccc(-c2cc(N3CCNCC3)c3cc(OC)ccc3c2)n1` [Compound 119, N-(2-methoxyethyl)-4-(6-methoxy-4-piperazin-1-yl-2-naphthyl)pyrimidin-2-amine], the inhibition at 10 µM came out at 94% in the assay with DLD-1 and 93% in the assay on MDA-MB-231.
The matching figures for `COc1ccc2cc(-c3ccnc(NCCc4cccnc4)n3)cc(NC(=O)OC(C)(C)C)c2c1` [Compound 98, tert-butyl (7-methoxy-3-{2-[(2-pyridin-3-ylethyl)amino]pyrimidin-4-yl}-1-naphthyl)carbamate]: 98% and 86%.
Taken in the same sequence, the figures for `COc1ccc(CCNc2nccc(-c3cc(N4CCNCC4)c4cc(OC)ccc4c3)n2)cc1` [Compound 134, N-[2-(4-methoxyphenyl)ethyl]-4-(6-methoxy-4-piperazin-1-yl-2-naphthyl)pyrimidin-2-amine] were 97% and 98%.
Regarding `COc1cc(CCNc2nccc(-c3cc(N4CCNCC4)c4cc(OC)ccc4c3)n2)cc(OC)c1` [Compound 132, N-[2-(3,5-dimethoxyphenyl)ethyl]-4-(6-methoxy-4-piperazin-1-yl-2-naphthyl)pyrimidin-2-amine], the values for the inhibition at 10 µM in the assay on DLD-1 and with MDA-MB-231 were 97% and 98%, respectively.
On to `COc1cccc(CNc2nccc(-c3cc(NC(=O)OC(C)(C)C)c4cc(OC)ccc4c3)n2)c1` [Compound 99, tert-butyl (7-methoxy-3-{2-[(3-methoxybenzyl)amino]pyrimidin-4-yl}-1-naphthyl)carbamate], for which the results for the inhibition at 10 µM in the assay on DLD-1 and with MDA-MB-231 were 97% and 98%, respectively.
On to `COc1ccc2cc(-c3ccnc(NCCc4ccccn4)n3)cc(N3CCNCC3)c2c1` [Compound 123, 4-(6-methoxy-4-piperazin-1-yl-2-naphthyl)-N-(2-pyridin-2-ylethyl)pyrimidin-2-amine], for which the inhibition at 10 µM was 97% with DLD-1 and 98% with MDA-MB-231.
In the case of `COc1ccc2cc(-c3ccnc(NCCc4ccccc4OC)n3)cc(NC(=O)OC(C)(C)C)c2c1` [Compound 92, tert-butyl [7-methoxy-3-(2-{[2-(2-methoxyphenyl)ethyl]amino}pyrimidin-4-yl)-1-naphthyl]carbamate], the figures for the inhibition at 10 µM in the assay with DLD-1 and in the assay with MDA-MB-231 were 98% and 99%, respectively.
Consider `COc1ccc2cc(-c3ccnc(NCCc4cccc(OC)c4OC)n3)cc(NC(=O)OC(C)(C)C)c2c1` [Compound 94, tert-butyl [3-(2-{[2-(2,3-dimethoxyphenyl)ethyl]amino}pyrimidin-4-yl)-7-methoxy-1-naphthyl]carbamate], for which the inhibition at 10 µM with DLD-1 stood at 37%; in the assay with MDA-MB-231, 35%.
With `CNc1nccc(-c2cc(NC(=O)CNCCOC(C)C)c3cc(OC)ccc3c2)n1` [Compound 53, N~2~-(2-isopropoxyethyl)-N-{7-methoxy-3-[2-(methylamino)pyrimidin-4-yl]-1-naphthyl}glycinamide], the inhibition at 10 µM with DLD-1 was found to be 92%; in the assay with MDA-MB-231, 81%.
Turning to `CNc1nccc(-c2cc(NC3CCN(c4ccc5ccccc5n4)CC3)c3cc(OC)ccc3c2)n1` [Compound 154, 4-{6-methoxy-4-[(1-quinolin-2-ylpiperidin-4-yl)amino]-2-naphthyl}-N-methylpyrimidin-2-amine], the inhibition at 10 µM in the assay on DLD-1 was determined as 82%; in the assay on MDA-MB-231 it was 41%.
The matching figures for `COc1ccc2cc(-c3ccnc(NC4CCN(Cc5ccccc5)CC4)n3)cc(N3CCNCC3)c2c1` [Compound 117, N-(1-benzylpiperidin-4-yl)-4-(6-methoxy-4-piperazin-1-yl-2-naphthyl)pyrimidin-2-amine]: 97% and 97%.
For the molecule `CNc1nccc(-c2cc(NC(=O)CNc3cccnc3)c3cc(OC)ccc3c2)n1` [Compound 54, N-{7-methoxy-3-[2-(methylamino)pyrimidin-4-yl]-1-naphthyl}-N~2~-pyridin-3-ylglycinamide], the inhibition at 10 µM in the assay with DLD-1 is 75%; in the assay on MDA-MB-231, 65%.
As to `COc1ccc2cc(-c3ccnc(NCc4ccccn4)n3)cc(N3CCOCC3)c2c1` [Compound 25, 4-(6-methoxy-4-morpholin-4-yl-2-naphthyl)-N-(pyridin-2-ylmethyl)pyrimidin-2-amine], the inhibition at 10 µM is 82% in the assay on DLD-1 and 74% in the assay with MDA-MB-231.
Taken in the same sequence, the figures for `CNc1nccc(-c2cc(NC(=O)CN3CCN(CCOC)CC3)c3cc(OC)ccc3c2)n1` [Compound 59, 2-[4-(2-methoxyethyl)piperazin-1-yl]-N-{7-methoxy-3-[2-(methylamino)pyrimidin-4-yl]-1-naphthyl}acetamide] were 97% and 98%.
Turning to `CNc1nccc(-c2cc(NC(=O)CN3CCN(c4ncncn4)CC3)c3cc(OC)ccc3c2)n1` [Compound 40, N-{7-methoxy-3-[2-(methylamino)pyrimidin-4-yl]-1-naphthyl}-2-[4-(1,3,5-triazin-2-yl)piperazin-1-yl]acetamide], the inhibition at 10 µM is 54% with DLD-1 and 40% in the assay on MDA-MB-231.
For the molecule `CNc1nccc(-c2cc(NC(=O)CN3CCN(CC(=O)N(C)c4ccccc4)CC3)c3cc(OC)ccc3c2)n1` [Compound 79, 2-{4-[2-({7-methoxy-3-[2-(methylamino)pyrimidin-4-yl]-1-naphthyl}amino)-2-oxoethyl]piperazin-1-yl}-N-methyl-N-phenylacetamide], the inhibition at 10 µM in the assay with DLD-1 came out at 98%; in the assay on MDA-MB-231 it was 99%.
With `CNc1nccc(-c2cc(NC(=O)CNCCN3CCOCC3)c3cc(OC)ccc3c2)n1` [Compound 78, N-{7-methoxy-3-[2-(methylamino)pyrimidin-4-yl]-1-naphthyl}-N~2~-(2-morpholin-4-ylethyl)glycinamide], the inhibition at 10 µM was 55% in the assay with DLD-1 and 48% with MDA-MB-231.
Regarding `CNc1nccc(-c2cc(NC(=O)CN3CCC(N4CCN(C)CC4)CC3)c3cc(OC)ccc3c2)n1` [Compound 45, N-{7-methoxy-3-[2-(methylamino)pyrimidin-4-yl]-1-naphthyl}-2-[4-(4-methylpiperazin-1-yl)piperidin-1-yl]acetamide], the inhibition at 10 µM came out at 98% in the assay on DLD-1 and 99% in the assay with MDA-MB-231.
On to `CNc1nccc(-c2cc(NC(=O)CN3CCN(C4CCN(C)CC4)CC3)c3cc(OC)ccc3c2)n1` [Compound 83, N-{7-methoxy-3-[2-(methylamino)pyrimidin-4-yl]-1-naphthyl}-2-[4-(1-methylpiperidin-4-yl)piperazin-1-yl]acetamide], for which the inhibition at 10 µM in the assay with DLD-1 and in the assay with MDA-MB-231 was 99% in each case.
Consider `CNc1nccc(-c2cc(NC(=O)CN3CCN(c4nccc(C(F)(F)F)n4)CC3)c3cc(OC)ccc3c2)n1` [Compound 75, N-{7-methoxy-3-[2-(methylamino)pyrimidin-4-yl]-1-naphthyl}-2-{4-[4-(trifluoromethyl)pyrimidin-2-yl]piperazin-1-yl}acetamide], for which the inhibition at 10 µM in the assay on DLD-1 was found to be 97%; in the assay with MDA-MB-231, 98%.
Taken in the same sequence, the figures for `COc1ccc2cc(-c3ccnc(NCc4cccnc4)n3)cc(N3CCNCC3)c2c1` [Compound 130, 4-(6-methoxy-4-piperazin-1-yl-2-naphthyl)-N-(pyridin-3-ylmethyl)pyrimidin-2-amine] were 97% and 76%.
